Data on three compounds can be found in patent publication US20220365069A1, “ATP-BASED CELL SORTING AND HYPERPROLIFERATIVE CANCER STEM CELLS” (LUNELLA BIOTECH, INC., priority 2019, published 2022).

One assay concerns ATP-low MCF7 cells. The experiment in a line: 3D-mammosphere assay, drug sensitivity of ATP-low MCF7 sub-population. The format is cell-based, human. The source says: (§1) MCF7 cells in the ATP-high subpopulation show a multi-drug resistance phenotype. The 3D-mammosphere assay was used to explore the differential sensitivity of ATP-high and ATP-low MCF7 cell sub-populations to four different classes of drugs, using as a functional readout of drug-resistance. The drug classes include Tamoxifen, doxycycline, DPI, and Palbociclib.
(§2) Flow Cytometry after Vital Staining with ATP-Red 1: Human breast cancer cell lines were first grown either as a 2D-monolayer or as 3D-spheroids. Then the cells were collected and dissociated into a single-cell suspension, prior to analysis or sorting by flow-cytometry with a SONY SH800 Cell Sorter. Briefly, ATP-high and ATP-low sub-populations of cells were isolated after vital staining with the probe ATP-Red 1. The ATP-high and ATP-low cell sub-populations were selected by gating, within the ATP-Red 1 signal. Unless otherwise stated, cells with the lowest (bottom 5% or 10%) fluorescent signal, or the highest (top 5% or 10%) fluorescent signal, were collected as ATP-low and ATP-high, respectively. The cells outside the gates were discarded during sorting, due to the gate settings. However, such settings are often required to ensure high-purity during sorting. Data were analyzed with FlowJo 10.1 software.
(§3) 3D Anchorage Independent Growth Assay: A single cell suspension was prepared using enzymatic (lx Trypsin-EDTA, Sigma Aldrich, cat. #T3924), and manual disaggregation (25 gauge needle). Five thousand cells were plated with in mammosphere medium (DMEM-F12/B27/20ng/m1 EGF/PenStrep), under non-adherent conditions, in six wells plates coated with 2-hydroxyethylmethacrylate (poly-HEMA, Sigma, cat. #P3932). Cells were grown for 5 days and maintained in a humidified incubator at 37° C. at an atmospheric pressure in 5% (v/v) carbon dioxide/air. After 5 days, 3D spheroids with a diameter greater than 50 μm were counted using a microscope, fitted with a graticule eye-piece, and the percentage of cells which formed spheroids was calculated and normalized to one (1=100% MFE; mammosphere forming efficiency). Mammosphere assays were performed in triplicate and repeated three times independently.

For a further assay, the system named is ATP-high MCF7 cells. The experiment in a line: 3D-mammosphere assay, drug sensitivity of ATP-high MCF7 sub-population. The format is cell-based, human.
Source text: as §1, §2
as §3, with “Mammosphere assays were performed in triplicate and repeated three times independently.” left out

SMILES strings stand for the structures.

Regarding `CC/C(=C(\c1ccccc1)c1ccc(OCCN(C)C)cc1)c1ccccc1` [Tamoxifen], the “reduction of 3D-mammosphere formation” value is given as around 40% in the assay on ATP-low MCF7 cells (ATP-low MCF7 cells (bottom 5%), 1 μM) and above 90% with ATP-low MCF7 cells (ATP-low MCF7 cells (bottom 5%), 5 μM). In the assay with ATP-high MCF7 cells (ATP-high MCF7 cells (top 5%), 5 μM), the “3D-mammosphere formation, of the vehicle-treated control levels” value was above 80%.
Turning to `c1ccc2c(c1)[I+]c1ccccc1-2` [DPI, diphenyleneiodonium], the “reduction of 3D-mammosphere formation” value is listed as above 90% in the assay on ATP-low MCF7 cells (ATP-low cells, 100 nM) and around 55% in the assay with ATP-high MCF7 cells (ATP-high cells, 100 nM).
On to `CC(=O)c1c(C)c2cnc(Nc3ccc(N4CCNCC4)cn3)nc2n(C2CCCC2)c1=O` [Palbociclib], for which the “reduction of 3D-mammosphere formation” value in the assay with ATP-low MCF7 cells (ATP-low cells, 12.5 nM) was around 75%. Further, the “reduction of 3D spheroid formation” value in the assay on ATP-high MCF7 cells (ATP-high cells, 12.5 nM) is -50%.
